This is an account of results in PubChem BioAssay AID328 (DTP/NCI, 2004).

Molecules are shown by their SMILES. Where “and” joins values, the source holds several entries; their conditions need not be identical. Equal entries are not always repeated. Inconclusive results and toxic doses are left out.

In the assay the test system is BDF1 mice, P388 leukemia ip, median survival T/C. The experiment in a line: NCI In Vivo Anticancer Drug Screen. Data for tumor model P388 Leukemia (intraperitoneal) in B6D2F1 (BDF1) mice. The settings on record: endpoint: median survival time, higher = longer survival. An outline of the steps: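 Compound-treated tumour-bearing mice were compared with vehicle-treated controls. Survival was recorded, and the value is the treated-group measurement divided by the control-group measurement (T/C).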

Where [1] appears, read: dose: 50.0 mg/kg/injection, schedule: Q01DX009 (ip), vehicle: saline with Tween-80.
The mark [2] stands for this setting: dose: 100.0 mg/kg/injection, schedule: Q01DX009 (ip), vehicle: saline with Tween-80.
[3] abbreviates: dose: 100.0 mg/kg/injection, schedule: Q01DX009 (ip), vehicle: Klucel (hydroxypropylcellulose) (HPC).
Setting [4] is: dose: 200.0 mg/kg/injection, schedule: Q01DX009 (ip), vehicle: Klucel (hydroxypropylcellulose) (HPC).
Where [5] appears, read: dose: 400.0 mg/kg/injection, schedule: Q01DX009 (ip), vehicle: Klucel (hydroxypropylcellulose) (HPC).
Setting [6] is: dose: 25.0 mg/kg/injection, schedule: Q01DX009 (ip), vehicle: saline with Tween-80.
[7] abbreviates: dose: 100.0 mg/kg/injection, schedule: Q04DX003 (ip), vehicle: saline with Tween-80.

`COC1=C(N)C(=O)c2nc(-c3nc(C(=O)O)c(C)c(-c4ccc(OC)c(OC)c4O)c3N)ccc2C1=O`: the T/C by setting is: (dose: 0.01 mg/kg/injection, schedule: Q01DX010 (ip), vehicle: saline) 110 % of control; (dose: 0.02 mg/kg/injection, schedule: Q01DX009 (ip), vehicle: other) 118 % of control; (dose: 0.03 mg/kg/injection, schedule: Q01DX009 (ip), vehicle: dioxane) 97 % of control; (dose: 0.03 mg/kg/injection, schedule: Q01DX009 (ip), vehicle: saline) 114 % of control; (dose: 0.04 mg/kg/injection, schedule: Q01DX009 (ip), vehicle: dioxane) 99 % of control and 100 % of control; (dose: 0.05 mg/kg/injection, schedule: Q01DX009 (ip), vehicle: dioxane) 114 % of control. The T/C reads like this: (dose: 0.05 mg/kg/injection, schedule: Q01DX009 (ip), vehicle: saline) 161 % of control; (dose: 0.05 mg/kg/injection, schedule: Q01DX010 (ip), vehicle: water) 118 % of control; (dose: 0.05 mg/kg/injection, schedule: Q04DX002 (ip), vehicle: saline) 112 % of control; (dose: 0.06 mg/kg/injection, schedule: Q01DX009 (ip), vehicle: dioxane) 114 % of control; (dose: 0.1 mg/kg/injection, schedule: Q01DX009 (ip), vehicle: saline) 152 % of control; (dose: 0.1 mg/kg/injection, schedule: Q01DX010 (ip), vehicle: saline) 118 % of control. Besides, the T/C is 118 % of control (dose: 0.1 mg/kg/injection, schedule: Q04DX003 (ip), vehicle: other); 109 % of control (dose: 0.13 mg/kg/injection, schedule: Q01DX009 (oral), vehicle: other); 118 % of control (dose: 0.2 mg/kg/injection, schedule: Q01DX001 (ip), vehicle: other); 118 % of control (dose: 0.2 mg/kg/injection, schedule: Q01DX010 (ip), vehicle: water); 114 % of control (dose: 0.2 mg/kg/injection, schedule: Q04DX002 (ip), vehicle: saline); 118 % of control (dose: 0.2 mg/kg/injection, schedule: Q04DX003 (ip), vehicle: other). Besides, the T/C (dose: 0.2 mg/kg/injection, schedule: Q08DX002 (ip), vehicle: other) is 118 % of control; the T/C (dose: 0.25 mg/kg/injection, schedule: Q01DX009 (oral), vehicle: other) was 109 % of control; the T/C (dose: 0.4 mg/kg/injection, schedule: Q01DX001 (ip), vehicle: other) was 118 % of control; the T/C (dose: 0.5 mg/kg/injection, schedule: Q01DX001 (ip), vehicle: other) was 122 % of control; the T/C (dose: 0.5 mg/kg/injection, schedule: Q01DX009 (oral), vehicle: other) was 109 % of control; the T/C (dose: 0.5 mg/kg/injection, schedule: Q03HX008 (ip), vehicle: other) was 109 % of control. For the same compound, the T/C was 116 % of control (dose: 0.5 mg/kg/injection, schedule: Q04DX003 (ip), vehicle: other); 113 % of control (dose: 0.8 mg/kg/injection, schedule: Q01DX001 (ip), vehicle: other); 117 % of control (dose: 0.8 mg/kg/injection, schedule: Q01DX009 (ip), vehicle: saline); 118 % of control (dose: 0.8 mg/kg/injection, schedule: Q04DX003 (ip), vehicle: other); 109 % of control (dose: 0.8 mg/kg/injection, schedule: Q08DX002 (ip), vehicle: other); 109 % of control (dose: 1.0 mg/kg/injection, schedule: Q01DX001 (ip), vehicle: other). Moreover, the T/C is, setting by setting: (dose: 1.0 mg/kg/injection, schedule: Q01DX001 (oral), vehicle: other) 118 % of control; (dose: 1.0 mg/kg/injection, schedule: Q01DX009 (oral), vehicle: other) 100 % of control; (dose: 1.0 mg/kg/injection, schedule: Q03HX008 (ip), vehicle: other) 109 % of control; (dose: 1.0 mg/kg/injection, schedule: Q08DX002 (ip), vehicle: other) 100 % of control; (dose: 2.0 mg/kg/injection, schedule: Q01DX001 (oral), vehicle: other) 100 % of control; (dose: 2.0 mg/kg/injection, schedule: Q01DX009 (oral), vehicle: other) 95 % of control. In addition, the T/C by setting is: (dose: 4.0 mg/kg/injection, schedule: Q01DX001 (oral), vehicle: other) 95 % of control; (dose: 31.2 micrograms/kg/injection, schedule: Q01DX009 (ip), vehicle: other) 116 % of control; (dose: 62.5 micrograms/kg/injection, schedule: Q03HX016 (ip), vehicle: other) 116 % of control; (dose: 62.5 micrograms/kg/injection, schedule: Q03HX024 (ip), vehicle: other) 116 % of control; (dose: 125.0 micrograms/kg/injection, schedule: Q03HX016 (ip), vehicle: other) 100 % of control; (dose: 125.0 micrograms/kg/injection, schedule: Q03HX024 (ip), vehicle: other) 91 % of control. Moreover, the T/C runs as follows: (dose: 250.0 micrograms/kg/injection, schedule: Q01DX009 (ip), vehicle: other) 116 % of control; (dose: 667.0 micrograms/kg/injection, schedule: Q04DX003 (ip), vehicle: alkali diluted with saline) 120 % of control.

Consider `CC(C)[C@]12O[C@H]1[C@@H]1O[C@]13[C@]1(O[C@H]1C[C@H]1C4=C(CC[C@@]13C)C(=O)OC4)[C@@H]2O`, for which the T/C runs as follows: (dose: 26.0 micrograms/kg/injection, schedule: Q01DX009 (ip), vehicle: saline) 118 % of control; (dose: 40.0 micrograms/kg/injection, schedule: Q01DX009 (ip), vehicle: saline) 118 % of control; (dose: 60.0 micrograms/kg/injection, schedule: Q01DX009 (ip), vehicle: saline) 100 % of control; (dose: 89.0 micrograms/kg/injection, schedule: Q01DX009 (ip), vehicle: saline) 109 % of control; (dose: 133.0 micrograms/kg/injection, schedule: Q01DX009 (ip), vehicle: saline) 100 % of control.

In the case of `CCC(c1ccc(O)cc1)C(CC)c1ccc(OC)cc1` (stereo not given), the T/C by setting is: under setting [1], 104 % of control; under setting [2], 118 % of control; (dose: 200.0 mg/kg/injection, schedule: Q01DX009 (ip), vehicle: saline with Tween-80) 109 % of control.

On to `NC(=O)N/N=C/c1ccccc1N`, for which the T/C was 90 % of control under setting [3], 100 % of control under setting [4] and 100 % of control under setting [5].

As for `CCN(CC)c1c(-c2ccccc2)nnc2c3ccccc3nn12`, the T/C was 100 % of control under setting [6], 88 % of control under setting [1] and 100 % of control under setting [2].

As for `Cc1ccc(S(=O)(=O)Cl)c(Cl)c1`, the T/C reads like this: under setting [6], 100 % of control; under setting [1], 116 % of control; (dose: 50.0 mg/kg/injection, schedule: Q04DX003 (ip), vehicle: saline with Tween-80) 104 % of control; under setting [2], 112 % of control; under setting [7], 113 % of control.

With `COC(=O)[C@@H]1[C@H](O)[C@H](C)[C@H](O)[C@@](C)(O)/C=C\C=C(C)C(=O)Nc2c(C)c(OC(C)=O)c3c(c2O)C(=O)C(C)=C2OCOC(=C23)C(C)=C[C@@](C)(O)[C@H](O)[C@@H](C)[C@H]1OC(C)=O`, the T/C under setting [3] was 93 % of control and 105 % of control; the T/C under setting [4] is 120 % of control and 108 % of control; the T/C under setting [5] is 121 % of control and 113 % of control; the T/C (dose: 400.0 mg/kg/injection, schedule: Q01DX009 (ip), vehicle: saline) was 90 % of control.

For `COc1cc2c(cc1I)-c1c(cc(OC)c(OC)c1OC)CC[C@@H]2NC(C)=O`, the T/C is 100 % of control (dose: 100.0 mg/kg/injection, schedule: Q04DX003 (ip), vehicle: saline sonified); 108 % of control (dose: 200.0 mg/kg/injection, schedule: Q04DX003 (ip), vehicle: saline sonified); 100 % of control (dose: 400.0 mg/kg/injection, schedule: Q04DX003 (ip), vehicle: saline sonified).

In the case of `NNc1nccnc1Cl`, the T/C runs as follows: (dose: 100.0 mg/kg/injection, schedule: Q04DX003 (ip), vehicle: saline) 105 % of control; (dose: 200.0 mg/kg/injection, schedule: Q04DX003 (ip), vehicle: saline) 103 % of control.

For the compound `Fc1ccc(-c2n[nH]c3c2CCCc2ccccc2-3)cc1`, the T/C under setting [7] was 114 % of control; the T/C (dose: 200.0 mg/kg/injection, schedule: Q04DX003 (ip), vehicle: saline with Tween-80) is 114 % of control; the T/C (dose: 400.0 mg/kg/injection, schedule: Q04DX003 (ip), vehicle: saline with Tween-80) was 123 % of control.
